Experimental data from ChEMBL document CHEMBL5634157, “Design and synthesis of certain 7-Aryl-2-Methyl-3-Substituted Pyrazolo{1,5-a}Pyrimidines as multikinase inhibitors” (Eur J Med Chem, 2023).
pIC50: −log10 of the molar value. Activity calls are given as the source filed them. No cut-off for these calls is given here.

Experiments:
Activin receptor type-1 = molecular target: T1, Activin receptor type-1 (Homo sapiens, UniProt Q04771); experiment: Inhibition of human recombinant GST-tagged-ALK2 (147 to 509 residues) using Casein as substrate in presence of ATP by ADP-Glo luminescence assay
T1 sequence (Q04771 whole entry): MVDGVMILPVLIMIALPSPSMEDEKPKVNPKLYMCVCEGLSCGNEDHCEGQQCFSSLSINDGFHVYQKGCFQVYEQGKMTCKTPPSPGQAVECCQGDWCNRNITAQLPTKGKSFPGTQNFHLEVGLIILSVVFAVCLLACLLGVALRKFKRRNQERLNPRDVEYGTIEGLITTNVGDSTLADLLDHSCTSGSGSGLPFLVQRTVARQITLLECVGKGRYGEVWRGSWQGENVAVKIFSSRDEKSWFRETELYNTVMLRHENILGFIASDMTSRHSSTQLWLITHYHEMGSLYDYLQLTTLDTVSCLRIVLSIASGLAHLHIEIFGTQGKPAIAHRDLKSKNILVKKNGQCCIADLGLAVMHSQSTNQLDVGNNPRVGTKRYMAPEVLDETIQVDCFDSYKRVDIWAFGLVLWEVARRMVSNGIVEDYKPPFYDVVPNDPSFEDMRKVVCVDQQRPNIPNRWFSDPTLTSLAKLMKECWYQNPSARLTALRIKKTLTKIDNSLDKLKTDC

[1] = molecular target: Casein kinase II subunit alpha (Homo sapiens, UniProt P68400); experiment: Inhibition of human recombinant full-length C-terminal His tagged-CK2 alpha expressed in Escherichia coli using tetra-methylbenzidine as substrate in presence of ATP by ELISA analysis
[2] = molecular target: T2, Serine/threonine-protein kinase Chk1 (Homo sapiens, UniProt O14757); experiment: Inhibition of human recombinant CHK1 using CHKtide as substrate in presence of ATP by ADP-Glo luminescence kinase assay
T2 sequence (O14757 whole entry): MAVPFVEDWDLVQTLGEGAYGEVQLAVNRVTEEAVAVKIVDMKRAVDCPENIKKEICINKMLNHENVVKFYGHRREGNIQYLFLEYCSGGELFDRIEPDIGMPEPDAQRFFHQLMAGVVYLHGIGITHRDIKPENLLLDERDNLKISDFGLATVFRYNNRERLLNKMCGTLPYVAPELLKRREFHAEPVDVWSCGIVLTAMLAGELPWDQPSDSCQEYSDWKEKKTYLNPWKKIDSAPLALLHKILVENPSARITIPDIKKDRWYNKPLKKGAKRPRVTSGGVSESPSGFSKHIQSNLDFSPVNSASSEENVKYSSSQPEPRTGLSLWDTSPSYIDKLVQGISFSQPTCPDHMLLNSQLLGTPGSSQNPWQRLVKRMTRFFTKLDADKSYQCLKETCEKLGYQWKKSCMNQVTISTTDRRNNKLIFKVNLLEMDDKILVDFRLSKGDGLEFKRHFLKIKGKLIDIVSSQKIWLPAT

[3] = molecular target: Cyclin-dependent kinase 2 (Homo sapiens, UniProt P24941); experiment: Inhibition of human CDK2 by ELISA analysis
[4] = molecular target: Mast/stem cell growth factor receptor Kit (Homo sapiens, UniProt P10721); experiment: Inhibition of human recombinant N-terminal GST tagged-c-KIT (544 to end residues) expressed in baculovirus infected Sf9 cells using Poly (Glu,Tyr) 4:1 as substrate in presence of ATP by ADP-Glo luminescence kinase assay
[5] = molecular target: Epidermal growth factor receptor (Homo sapiens, UniProt P00533); experiment: Inhibition of human recombinant GST tagged-EGFR using Poly (Glu,Tyr) 4:1 as substrate in presence of ATP by ADP-Glo luminescence kinase assay
[6] = molecular target: Proto-oncogene tyrosine-protein kinase receptor Ret (Homo sapiens, UniProt P07949); experiment: Inhibition of human recombinant GST tagged-RET using IRF-1Rtide as substrate in presence of ATP by ADP-Glo luminescence kinase assay
[7] = molecular target: Proto-oncogene tyrosine-protein kinase ROS (Homo sapiens, UniProt P08922); experiment: Inhibition of human recombinant GST tagged-ROS1 using IRF-1Rtide as substrate in presence of ATP by ADP-Glo luminescence kinase assay
[8] = Inhibition of human recombinant FLT3 using myelin basic protein as substrate in presence of ATP by ADP-Glo luminescence kinase assay
[9] = Cytotoxicity against human MCF-10A cells assessed as inhibition of cell viability by MTT assay; type: toxicity, cell-based
[10] = Cytotoxicity against human FHCs assessed as inhibition of cell viability by MTT assay; type: toxicity, cell-based; conditions: FHC cells
[11] = molecular target: Serine/threonine-protein kinase pim-1 (Homo sapiens, UniProt P11309); experiment: Inhibition of human recombinant full-length PIM1 expressed in baculovirus infected Sf9 cells using S6K as substrate in presence of ATP by ADP-Glo luminescence kinase assay
KM12 = experiment: Antiproliferative activity against human KM12 cells assessed as inhibition of cell viability by MTT assay
EKVX = experiment: Antiproliferative activity against human EKVX cells assessed as inhibition of cell viability by MTT assay
[12] = molecular target: T3, Activin receptor type-1 (Homo sapiens) (UniProt Q04771); experiment: Inhibition of ALK2 in human EKVX cells by Western blotting analysis; type: cell-based
T3 sequence (whole entry): T1 sequence (Q04771 whole entry)

Chain of Casein kinase II subunit alpha (P68400 whole entry): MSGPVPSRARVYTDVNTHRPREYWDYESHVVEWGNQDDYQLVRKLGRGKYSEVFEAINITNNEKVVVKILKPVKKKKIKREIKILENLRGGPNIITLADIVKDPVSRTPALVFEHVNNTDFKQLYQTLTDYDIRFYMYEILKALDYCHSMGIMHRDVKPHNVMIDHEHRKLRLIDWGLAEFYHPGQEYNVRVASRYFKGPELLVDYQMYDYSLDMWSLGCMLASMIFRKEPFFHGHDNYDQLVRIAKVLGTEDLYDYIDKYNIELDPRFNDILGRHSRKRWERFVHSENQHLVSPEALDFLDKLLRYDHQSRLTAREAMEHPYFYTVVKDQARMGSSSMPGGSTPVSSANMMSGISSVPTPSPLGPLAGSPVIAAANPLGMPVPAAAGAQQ
Chain of Proto-oncogene tyrosine-protein kinase receptor Ret (P07949 whole entry): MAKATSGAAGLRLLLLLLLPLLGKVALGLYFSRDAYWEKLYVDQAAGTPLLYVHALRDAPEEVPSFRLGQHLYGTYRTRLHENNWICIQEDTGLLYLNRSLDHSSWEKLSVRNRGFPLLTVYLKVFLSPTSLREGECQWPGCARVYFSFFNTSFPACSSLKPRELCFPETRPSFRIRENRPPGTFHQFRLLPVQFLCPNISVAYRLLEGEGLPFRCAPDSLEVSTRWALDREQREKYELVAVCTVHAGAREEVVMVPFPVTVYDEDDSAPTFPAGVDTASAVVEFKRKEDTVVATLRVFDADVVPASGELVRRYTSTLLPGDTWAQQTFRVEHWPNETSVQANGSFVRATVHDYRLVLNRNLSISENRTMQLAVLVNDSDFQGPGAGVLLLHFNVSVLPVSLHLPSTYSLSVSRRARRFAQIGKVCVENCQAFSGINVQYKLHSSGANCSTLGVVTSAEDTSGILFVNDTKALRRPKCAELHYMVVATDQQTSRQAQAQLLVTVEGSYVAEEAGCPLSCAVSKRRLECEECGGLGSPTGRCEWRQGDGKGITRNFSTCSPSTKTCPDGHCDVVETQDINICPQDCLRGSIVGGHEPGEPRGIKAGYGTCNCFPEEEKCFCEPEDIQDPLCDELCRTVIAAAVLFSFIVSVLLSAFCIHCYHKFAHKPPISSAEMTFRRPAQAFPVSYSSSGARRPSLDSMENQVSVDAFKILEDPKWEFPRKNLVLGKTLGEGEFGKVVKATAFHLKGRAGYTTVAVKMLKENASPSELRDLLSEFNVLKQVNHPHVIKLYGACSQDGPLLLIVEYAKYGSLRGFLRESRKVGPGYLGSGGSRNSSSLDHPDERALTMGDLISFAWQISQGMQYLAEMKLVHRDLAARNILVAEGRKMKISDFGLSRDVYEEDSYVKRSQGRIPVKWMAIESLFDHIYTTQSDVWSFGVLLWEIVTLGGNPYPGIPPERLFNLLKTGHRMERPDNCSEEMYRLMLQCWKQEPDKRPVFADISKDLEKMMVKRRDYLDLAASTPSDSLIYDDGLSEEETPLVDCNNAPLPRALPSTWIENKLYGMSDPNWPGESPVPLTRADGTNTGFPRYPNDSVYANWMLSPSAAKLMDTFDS
Chain of Serine/threonine-protein kinase pim-1 (P11309 whole entry): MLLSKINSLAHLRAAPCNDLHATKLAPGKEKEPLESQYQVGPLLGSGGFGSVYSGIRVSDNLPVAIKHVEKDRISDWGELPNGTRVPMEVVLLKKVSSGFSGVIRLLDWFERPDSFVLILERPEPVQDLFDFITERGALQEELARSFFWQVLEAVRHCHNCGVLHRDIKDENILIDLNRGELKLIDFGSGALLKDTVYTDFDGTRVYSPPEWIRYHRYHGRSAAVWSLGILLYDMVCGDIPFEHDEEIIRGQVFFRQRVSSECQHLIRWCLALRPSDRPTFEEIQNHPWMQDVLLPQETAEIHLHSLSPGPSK
Chain of Epidermal growth factor receptor (P00533 whole entry): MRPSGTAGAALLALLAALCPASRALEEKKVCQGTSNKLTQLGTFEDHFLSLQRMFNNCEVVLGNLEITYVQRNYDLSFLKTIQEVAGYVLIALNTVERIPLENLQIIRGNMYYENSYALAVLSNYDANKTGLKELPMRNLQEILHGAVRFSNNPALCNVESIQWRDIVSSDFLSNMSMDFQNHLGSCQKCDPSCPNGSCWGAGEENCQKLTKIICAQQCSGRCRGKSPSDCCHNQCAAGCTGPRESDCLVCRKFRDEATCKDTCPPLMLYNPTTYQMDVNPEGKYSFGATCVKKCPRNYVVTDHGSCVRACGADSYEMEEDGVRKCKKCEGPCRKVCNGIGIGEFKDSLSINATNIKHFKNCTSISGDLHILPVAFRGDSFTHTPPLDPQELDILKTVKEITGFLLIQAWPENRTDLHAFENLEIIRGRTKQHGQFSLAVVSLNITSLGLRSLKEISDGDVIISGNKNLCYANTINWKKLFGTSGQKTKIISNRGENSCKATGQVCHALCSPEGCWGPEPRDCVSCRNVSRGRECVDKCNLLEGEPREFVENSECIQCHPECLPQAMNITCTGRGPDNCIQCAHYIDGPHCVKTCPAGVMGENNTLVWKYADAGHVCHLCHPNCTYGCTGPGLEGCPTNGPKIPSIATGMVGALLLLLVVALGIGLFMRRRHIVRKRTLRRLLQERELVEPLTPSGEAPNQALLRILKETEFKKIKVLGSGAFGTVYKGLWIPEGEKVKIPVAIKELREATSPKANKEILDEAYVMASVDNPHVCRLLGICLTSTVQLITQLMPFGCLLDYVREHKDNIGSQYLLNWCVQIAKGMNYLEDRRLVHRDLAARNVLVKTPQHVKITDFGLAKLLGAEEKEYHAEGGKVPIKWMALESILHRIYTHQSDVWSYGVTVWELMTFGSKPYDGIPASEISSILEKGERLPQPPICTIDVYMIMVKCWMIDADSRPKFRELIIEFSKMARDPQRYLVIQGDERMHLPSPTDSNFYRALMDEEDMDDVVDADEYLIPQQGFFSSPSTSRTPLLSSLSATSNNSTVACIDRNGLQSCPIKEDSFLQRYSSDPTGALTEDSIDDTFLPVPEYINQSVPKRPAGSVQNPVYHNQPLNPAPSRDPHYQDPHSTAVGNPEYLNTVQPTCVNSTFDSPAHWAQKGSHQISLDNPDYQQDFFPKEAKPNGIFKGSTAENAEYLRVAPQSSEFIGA
Chain of Mast/stem cell growth factor receptor Kit (P10721 whole entry): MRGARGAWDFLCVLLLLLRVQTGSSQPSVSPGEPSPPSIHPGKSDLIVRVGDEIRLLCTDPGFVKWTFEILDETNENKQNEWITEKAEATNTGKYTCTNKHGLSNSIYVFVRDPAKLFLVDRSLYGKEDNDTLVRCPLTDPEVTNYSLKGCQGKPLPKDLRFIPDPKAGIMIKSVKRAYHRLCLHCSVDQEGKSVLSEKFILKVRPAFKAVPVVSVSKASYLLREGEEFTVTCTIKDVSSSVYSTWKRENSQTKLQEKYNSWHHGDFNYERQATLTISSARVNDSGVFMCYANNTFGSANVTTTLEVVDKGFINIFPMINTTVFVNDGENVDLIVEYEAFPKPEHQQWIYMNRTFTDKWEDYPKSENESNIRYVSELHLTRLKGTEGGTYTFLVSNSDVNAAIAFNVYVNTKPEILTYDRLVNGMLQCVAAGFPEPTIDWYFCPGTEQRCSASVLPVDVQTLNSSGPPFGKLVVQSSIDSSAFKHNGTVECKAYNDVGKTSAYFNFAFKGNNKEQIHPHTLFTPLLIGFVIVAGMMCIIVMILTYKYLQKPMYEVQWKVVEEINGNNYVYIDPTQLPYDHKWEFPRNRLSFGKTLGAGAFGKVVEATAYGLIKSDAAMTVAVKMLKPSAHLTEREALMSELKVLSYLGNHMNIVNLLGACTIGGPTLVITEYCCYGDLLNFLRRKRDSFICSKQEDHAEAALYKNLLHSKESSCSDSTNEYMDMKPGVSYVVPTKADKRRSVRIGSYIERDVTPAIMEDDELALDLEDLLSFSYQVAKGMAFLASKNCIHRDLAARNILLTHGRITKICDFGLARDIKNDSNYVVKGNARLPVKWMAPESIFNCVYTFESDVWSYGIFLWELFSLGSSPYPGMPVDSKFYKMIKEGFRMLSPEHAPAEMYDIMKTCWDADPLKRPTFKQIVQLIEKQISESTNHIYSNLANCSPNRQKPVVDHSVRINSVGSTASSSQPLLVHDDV

Row | Structure (SMILES) | pIC50 (Activin receptor type-1) | pIC50 [1] | pIC50 [2] | pIC50 [3] | other results
1 | Cc1nn2c(-c3ccc(Cl)cc3)ccnc2c1/C(N)=N/O |  | 6.66 | 6.49 | 5.97 | 
2 | COc1ccc(-c2ccnc3c(-c4noc(C)n4)c(C)nn23)cc1 | 7.43 | 7.03 | 6.81 | 6.15 | pIC50 [4]: 7.23; pIC50 [5]: 6.97; pIC50 [6]: 6.27; pIC50 [7]: 6.12
3 | CCc1nc(C(N)=O)c(Nc2ccc(N3CCC(N4CCN(C)CC4)CC3)c(OC)c2)nc1NC1CCOCC1 [GILTERITINIB] |  |  |  |  | pIC50 [8]: 7.19
4 | COc1cccc2c1C(=O)c1c(O)c3c(c(O)c1C2=O)C[C@@](O)(C(=O)CO)C[C@@H]3O[C@H]1C[C@H](N)[C@H](O)[C@H](C)O1 [DOXORUBICIN] |  |  |  |  | pIC50 [9]: 4.87; pIC50 [10]: 4.75
5 | Cn1cc(-c2cnn3c(N)cc([C@@H]4CCCNC4)nc23)cn1 |  |  | 7.47 |  | 
6 | O=c1c(O)c(-c2cc(O)c(O)c(O)c2)oc2cc(O)cc(O)c12 [MYRICETIN] |  |  |  |  | pIC50 [11]: 5.39
7 | O=C(Nc1cnn2ccc(N3CCC[C@@H]3c3cc(F)ccc3F)nc12)N1CC[C@H](O)C1 [LAROTRECTINIB] |  |  |  |  | pIC50 (KM12): 5.33; pIC50 (EKVX): 5.13
8 | Cc1nc(-c2c(C)nn3c(-c4ccccc4)ccnc23)no1 |  | 6.54 | 6.92 | 5.89 | 
9 | Cc1nn2c(-c3ccc(Br)cc3)ccnc2c1/C(N)=N/O |  | 6.91 | 7.13 | 6.23 | 
10 | Cc1nn2c(-c3ccccc3)ccnc2c1/C(N)=N/O |  | 7.14 | 7.07 | 5.76 | 
11 | C[C@H]1Oc2cc(cnc2N)-c2c(nn(C)c2C#N)CN(C)C(=O)c2ccc(F)cc21 [LORLATINIB] | 7.54 |  |  |  | inhibition [12]: Active

Continued, in another order:

Row | pIC50 (Activin receptor type-1) | pIC50 [1] | pIC50 [2] | pIC50 [3] | Structure (SMILES) | other results
12 | 6.45 |  |  |  | Cc1nn2c(-c3ccc(Br)cc3)ccnc2c1C(N)=O | 
13 | 6.74 |  |  |  | Cc1nn2c(-c3ccc(Cl)cc3)ccnc2c1C(N)=O | 
14 | 7.26 |  |  |  | Cc1ccc(-c2ccnc3c(C#N)c(C)nn23)cc1 | 
15 | 6.63 |  |  |  | Cc1nn2c(-c3ccc(Cl)cc3)ccnc2c1C#N | 
16 | 6.98 |  |  |  | Cc1nn2c(-c3ccc(Br)cc3)ccnc2c1C#N | 
